Read-outs that look alike come from different tables or passages of the source.
Key:
Type in all cases: in vivo
[1] = tested on: cocklebur (Xanthium strumarium); assay: Test B pre-/postemergence plant response; settings: for Cocklebur plant response rating: 8 g ai/ha; for pest or weed control at 16 g/ha / pest or weed control at 31 g/ha / pest or weed control at 62 g/ha: Xanthium strumarium, read-out: Plant response rating, Cocklebur; for pest or weed control at 16 g/ha: 16 g ai/ha; for pest or weed control at 31 g/ha: 31 g ai/ha; for pest or weed control at 62 g/ha: 62 g ai/ha
Procedure, shortened: (§1)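 Preemergence and postemergence (plants 2-18 cm, 1- to 4-leaf stage) applications used test chemicals in a non-phytotoxic solvent with surfactant. Plants were held in a greenhouse 13 to 15 days, then rated visually against controls on a 0-100 scale (0 no effect, 100 complete control).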

[2] = tested on: bermudagrass (Cynodon dactylon); assay: Test B pre-/postemergence plant response; settings: for Bermudagrass plant response rating: 8 g ai/ha; for pest or weed control at 16 g/ha / pest or weed control at 31 g/ha / pest or weed control at 62 g/ha: Cynodon dactylon, read-out: Plant response rating, Bermudagrass; for pest or weed control at 16 g/ha: 16 g ai/ha; for pest or weed control at 31 g/ha: 31 g ai/ha; for pest or weed control at 62 g/ha: 62 g ai/ha
Procedure, shortened: as §1

[3] = tested on: yellow nutsedge (Cyperus esculentus); assay: Test B pre-/postemergence plant response; settings: for Nutsedge, Yellow plant response rating: 8 g ai/ha; for pest or weed control at 16 g/ha / pest or weed control at 31 g/ha / pest or weed control at 62 g/ha: Cyperus, read-out: Plant response rating, Nutsedge, Yellow; for pest or weed control at 16 g/ha: 16 g ai/ha; for pest or weed control at 31 g/ha: 31 g ai/ha; for pest or weed control at 62 g/ha: 62 g ai/ha
Procedure, shortened: as §1

[4] = tested on: chickweed (Stellaria media); assay: Test B postemergence plant response; settings: for Plant response rating, Chickweed: Postemergence
Procedure, shortened: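 Postemergence greenhouse test; plants at 2 to 18 cm (1- to 4-leaf stage) given formulated test chemical, held 13 to 15 days, then visually rated against untreated controls on a 0 (no effect) to 100 (complete control) scale; dash means no result.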

[5] = tested on: giant foxtail (Setaria faberi); assay: Test A pre-/postemergence plant response; settings: Setaria faberi, 240 h, read-out: Plant response rating, Foxtail, Giant; for pest or weed control at 125 g/ha: 125 g ai/ha; for pest or weed control at 500 g/ha: 500 g ai/ha
Procedure, shortened: (§2)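 Seeds in loam soil/sand blend treated preemergence by directed soil spray, with simultaneous postemergence spray on 2–10 cm plants at one- to two-leaf stage; compounds in non-phytotoxic solvent with surfactant. Injury visually rated versus untreated controls after about 10 days in greenhouse, 0 (no effect) to 100 (complete control).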

[6] = tested on: pigweed (Amaranthus retroflexus); assay: Test A pre-/postemergence plant response; settings: Amaranthus retroflexus, 240 h, read-out: Plant response rating, Pigweed; for pest or weed control at 125 g/ha: 125 g ai/ha; for pest or weed control at 500 g/ha: 500 g ai/ha
Procedure, shortened: as §2

[7] = tested on: velvetleaf (Abutilon theophrasti); assay: Test A pre-/postemergence plant response
Procedure, shortened: as §2

[8] = tested on: barnyardgrass (Echinochloa crus-galli); assay: Test A pre-/postemergence plant response; settings: Echinochloa crus-galli, 240 h, read-out: Plant response rating, Barnyardgrass; for pest or weed control at 125 g/ha: 125 g ai/ha; for pest or weed control at 500 g/ha: 500 g ai/ha
Procedure, shortened: as §2

[9] = tested on: corn (Zea mays); assay: Test A pre-/postemergence plant response; settings: Zea mays, 240 h; for Corn plant response rating (crop injury, 0 = no effect, 100 = complete kill) at 125 g/ha: 125 g ai/ha; for Corn plant response rating (crop injury, 0 = no effect, 100 = complete kill) at 500 g/ha: 500 g ai/ha
Procedure, shortened: as §2

[10] = tested on: morningglory (Ipomoea coccinea); assay: Test A pre-/postemergence plant response
Procedure, shortened: as §2

[11] = tested on: wheat (Triticum aestivum); assay: Test A pre-/postemergence plant response; settings: Triticum aestivum, 240 h, read-out: Plant response rating, Wheat; for plant injury at 125 g/ha: 125 g ai/ha; for plant injury at 500 g/ha: 500 g ai/ha
Procedure, shortened: as §2

[12] = tested on: large crabgrass (Digitaria sanguinalis); assay: Test A pre-/postemergence plant response; settings: Digitaria sanguinalis, 240 h, read-out: Plant response rating, Crabgrass, Large; for pest or weed control at 125 g/ha: 125 g ai/ha; for pest or weed control at 500 g/ha: 500 g ai/ha
Procedure, shortened: as §2

[13] = post-emergence, Postemergence, scale 0 to 100
[14] = post-emergence, Postemergence, scale 0 to 100, 0 no effect, 100 complete control
[15] = pre-emergence, Preemergence, scale 0 to 100 (0 no effect, 100 complete control)
[16] = pre-emergence, Preemergence, 0 to 100 scale, 0 no effect, 100 complete control
[17] = pre-emergence, Preemergence, scale 0 to 100
[18] = post-emergence, Postemergence, 0 to 100 scale, 0 no effect, 100 complete control
[19] = pre-emergence, Preemergence, 0 to 100 scale (0 no effect, 100 complete control)
[20] = Postemergence, 125 g ai/ha, 0 to 100 scale, 0 no effect, 100 complete control
[21] = Postemergence, 500 g ai/ha, 0 to 100 scale, 0 no effect, 100 complete control
[22] = Preemergence, 125 g ai/ha, 0 to 100 scale (0 no effect, 100 complete control)
[23] = Preemergence, 500 g ai/ha, 0 to 100 scale (0 no effect, 100 complete control)

CCc1c(C)c(-c2ccc(Cl)cc2)nn1-c1c(O)cnn(C)c1=O [Compound 26, 4-[3-(4-chlorophenyl)-5-ethyl-4-methyl-1H-pyrazol-1-yl]-5-hydroxy-2-methyl-3(2H)-pyridazinone]
Cocklebur plant response rating ([1]; postemergence, 0-100 scale): 0
Cocklebur plant response rating ([1]; Preemergence, scale 0 to 100): 0
pest or weed control at 16 g/ha [1, 13]: 0%
pest or weed control at 31 g/ha [1, 14]: 0%
pest or weed control at 62 g/ha [1, 14]: 0%
pest or weed control at 16 g/ha [1, 15]: 0%
pest or weed control at 31 g/ha [1, 16]: 0%
pest or weed control at 62 g/ha [1, 17]: 10%
Bermudagrass plant response rating ([2]; postemergence, 0-100 scale): 0
pest or weed control at 16 g/ha [2, 13]: 0%
pest or weed control at 31 g/ha [2, 14]: 0%
pest or weed control at 62 g/ha [2, 14]: 0%
pest or weed control at 16 g/ha [2, 15]: 0%
pest or weed control at 31 g/ha [2, 16]: 0%
pest or weed control at 62 g/ha [2, 17]: 80%
Bermudagrass plant response rating ([2]; Preemergence, scale 0 to 100 (0 no effect, 100 complete control)): 0
Nutsedge, Yellow plant response rating ([3]; postemergence, 0-100 scale): 0
pest or weed control at 16 g/ha [3, 13]: 0%
pest or weed control at 31 g/ha [3, 14]: 0%
pest or weed control at 62 g/ha [3, 14]: 0%
pest or weed control at 16 g/ha [3, 15]: 0%
pest or weed control at 31 g/ha [3, 16]: 0%
pest or weed control at 62 g/ha [3, 17]: 0%
Nutsedge, Yellow plant response rating ([3]; Preemergence, scale 0 to 100): 0
Chickweed plant response rating ([4]; 8 g ai/ha, postemergence, 0-100 scale): 0
Plant response rating, Chickweed ([4]; 16 g ai/ha, scale 0 to 100): 0
Plant response rating, Chickweed ([4]; 31 g ai/ha, scale 0 to 100, 0 no effect, 100 complete control): 0
Plant response rating, Chickweed ([4]; 62 g ai/ha, scale 0 to 100, 0 no effect, 100 complete control): 0
pest or weed control at 125 g/ha [5, 18]: 90%
pest or weed control at 500 g/ha [5, 18]: 100%
pest or weed control at 125 g/ha [5, 19]: 100%
pest or weed control at 500 g/ha [5, 19]: 100%
pest or weed control at 125 g/ha [6, 18]: 0%
pest or weed control at 500 g/ha [6, 18]: 0%
pest or weed control at 125 g/ha [6, 19]: 0%
pest or weed control at 500 g/ha [6, 19]: 0%
Plant response rating, Velvetleaf [7, 20]: 0
Plant response rating, Velvetleaf [7, 21]: 20
Plant response rating, Velvetleaf [7, 22]: 0
Plant response rating, Velvetleaf [7, 23]: 0
pest or weed control at 125 g/ha [8, 18]: 100%
pest or weed control at 500 g/ha [8, 18]: 100%
pest or weed control at 125 g/ha [8, 19]: 100%
pest or weed control at 500 g/ha [8, 19]: 100%
Corn plant response rating (crop injury, 0 = no effect, 100 = complete kill) at 125 g/ha [9, 18]: 60%
Corn plant response rating (crop injury, 0 = no effect, 100 = complete kill) at 500 g/ha [9, 18]: 100%
Corn plant response rating (crop injury, 0 = no effect, 100 = complete kill) at 125 g/ha [9, 19]: 50%
Corn plant response rating (crop injury, 0 = no effect, 100 = complete kill) at 500 g/ha [9, 19]: 90%
Plant response rating, Morningglory [10, 20]: 0
Plant response rating, Morningglory [10, 21]: 20
Plant response rating, Morningglory [10, 22]: 0
Plant response rating, Morningglory [10, 23]: 0
plant injury at 125 g/ha [11, 18]: 0%
plant injury at 500 g/ha [11, 18]: 60%
plant injury at 125 g/ha [11, 19]: 20%
plant injury at 500 g/ha [11, 19]: 70%
pest or weed control at 125 g/ha [12, 18]: 80%
pest or weed control at 500 g/ha [12, 18]: 100%
pest or weed control at 125 g/ha [12, 19]: 90%
pest or weed control at 500 g/ha [12, 19]: 100%

— US20100267561A1, “HERBICIDAL PYRIDAZINONE DERIVATIVES” (priority 2007, published 2010)
